Columns and labels:
[1] = tested on: Beet Armyworm (BAW) (Spodoptera exigua); experiment: Bioassays on BAW, 128-well diet tray assay; format: in vivo; settings: Spodoptera exigua, 168 h; 50 μg/cm^2 on artificial diet, second instar larvae, five to seven days, 25° C.; read-out: BAW Rating (percent mortality)
Procedure: (§1) Certain molecules disclosed in this document were tested against BAW, CEW and CL using procedures described in the following examples. In the reporting of the results, the “BAW & CEW & CL Rating Table” was used (See Table Section).
Bioassays on BAW (Spodoptera exigua)
Bioassays on BAW were conducted using a 128-well diet tray assay. One to five second instar BAW larvae were placed in each well (3 mL) of the diet tray that had been previously filled with 1 mL of artificial diet to which 50 μg/cm^2 of the test compound (dissolved in 50 μL of 90:10 acetone-water mixture) had been applied (to each of eight wells) and then allowed to dry. Trays were covered with a clear self-adhesive cover, and held at 25° C., 14:10 light-dark for five to seven days. Percent mortality was recorded for the larvae in each well; activity in the eight wells was then averaged. The results are indicated in the tables entitled “Table 3: Assay Results Part 1” and “Table 4: Assay Results Part 2” (See Table Section).

[2] = tested on: Cabbage Looper (CL) (Trichoplusia ni); experiment: Bioassays on CL, 128-well diet tray assay; format: in vivo; settings: 168 h, 50 μg/cm^2 on artificial diet, second instar larvae, five to seven days, 25° C., read-out: CL Rating (percent mortality)
Procedure: as §1
Bioassays on CL (Trichoplusia ni)
Bioassays on CL were conducted using a 128-well diet tray assay. One to five second instar CL larvae were placed in each well (3 mL) of the diet tray that had been previously filled with 1 mL of artificial diet to which 50 μg/cm^2 of the test compound (dissolved in 50 μL of 90:10 acetone-water mixture) had been applied (to each of eight wells) and then allowed to dry. Trays were covered with a clear self-adhesive cover, and held at 25° C., 14:10 light-dark for five to seven days. Percent mortality was recorded for the larvae in each well; activity in the eight wells was then averaged. The results are indicated in the table entitled “Table 4: Assay Results Part 2” (See Table Section).

Structure (SMILES)	mortality at 50 µg/cm2 [1]	mortality at 50 µg/cm2 [2]
Cc1cc(/C=C/C(c2cc(Cl)c(Cl)c(Cl)c2)C(F)(F)F)ccc1C(=O)NC1(C(=S)NCC(F)(F)F)CC1 (stereo not drawn) [Compound P1011]	50 to 100%	50 to 100%
O=C(NC1(C(=O)NCC(F)F)CC1)c1ccc(/C=C/C(c2cc(Cl)c(Cl)c(Cl)c2)C(F)(F)F)cc1C(F)(F)F (stereo not drawn) [Compound P1015]	50 to 100%	50 to 100%
O=C(NC1(C(=O)NCCF)CC1)c1ccc(/C=C/C(c2cc(Cl)c(Cl)c(Cl)c2)C(F)(F)F)cc1C(F)(F)F (stereo not drawn) [Compound P1020]	50 to 100%	50 to 100%
CCNC(=O)C1(NC(=O)c2ccc(/C=C/C(c3cc(Cl)c(Cl)c(Cl)c3)C(F)(F)F)cc2Br)CC1 (stereo not drawn) [Compound P1023]	50 to 100%	50 to 100%
CCNC(=O)C1(NC(=O)c2ccc(/C=C/C(c3cc(Cl)c(Cl)c(Cl)c3)C(F)(F)F)cc2C(F)(F)F)CC1 (stereo not drawn) [Compound P1025]	50 to 100%	50 to 100%
CCNC(=O)C1(NC(=O)c2ccc(/C=C/C(c3cc(Cl)c(Cl)c(Cl)c3)C(F)(F)F)cc2C)CC1 (stereo not drawn) [Compound P1026]	50 to 100%	50 to 100%
O=C(NC1(C(=O)NCCC(F)(F)F)CC1)c1ccc(/C=C/C(c2cc(Cl)c(Cl)c(Cl)c2)C(F)(F)F)cc1Br (stereo not drawn) [Compound P1033]	50 to 100%	50 to 100%
O=C(NC1(C(=O)NCCC(F)(F)F)CC1)c1ccc(/C=C/C(c2cc(Cl)c(Cl)c(Cl)c2)C(F)(F)F)cc1C(F)(F)F (stereo not drawn) [Compound P1035]	50 to 100%	50 to 100%
O=C(NC1(C(=O)NCC(F)(F)F)CC1)c1ccc(/C=C/C(c2cc(Cl)cc(Cl)c2)C(F)(F)C(F)(F)F)cc1Br (stereo not drawn) [Compound P1043]	50 to 100%	50 to 100%
O=C(NC1(C(=O)NCC(F)(F)F)CC1)c1ccc(/C=C/C(c2cc(Cl)cc(Cl)c2)C(F)(F)C(F)(F)F)cc1C(F)(F)F (stereo not drawn) [Compound P1045]	50 to 100%	50 to 100%
O=C(NC1(C(=O)NCC(F)(F)F)CC1)c1ccc(/C=C/C(c2cc(Cl)cc(Cl)c2)C(F)(F)F)cc1Br (stereo not drawn) [Compound P1048]	50 to 100%	50 to 100%
O=C(NC1(C(=O)NCC(F)(F)F)CC1)c1ccc(/C=C/C(c2cc(Cl)cc(Cl)c2)C(F)(F)F)cc1C(F)(F)F (stereo not drawn) [Compound P1050]	50 to 100%	50 to 100%
O=C(NC1(C(=O)NCC(F)(F)F)CC1)c1ccc(/C=C/C(c2ccc(Cl)c(Cl)c2)C(F)(F)F)cc1Br (stereo not drawn) [Compound P1093]	50 to 100%	50 to 100%
O=C(NC1(C(=O)NCC(F)(F)F)CC1)c1ccc(/C=C/C(c2ccc(Cl)c(Cl)c2)C(F)(F)F)cc1C(F)(F)F (stereo not drawn) [Compound P1095]	50 to 100%	50 to 100%
O=C(NC1(C(=O)NCC(F)(F)F)CC1)c1ccc(/C=C/C(c2cc(Br)cc(Br)c2)C(F)(F)F)cc1Br (stereo not drawn) [Compound P1183]	50 to 100%	50 to 100%
O=C(NC1(C(=O)NCC(F)F)CC1)c1ccc(/C=C/C(c2cc(Br)cc(Br)c2)C(F)(F)F)cc1Br (stereo not drawn) [Compound P1193]	50 to 100%	50 to 100%
O=C(NC1(C(=O)NCC(F)F)CC1)c1ccc(/C=C/C(c2cc(Br)cc(Br)c2)C(F)(F)F)cc1C(F)(F)F (stereo not drawn) [Compound P1195]	50 to 100%	50 to 100%
O=C(NC1(C(=O)NCC(F)(F)F)CC1)c1ccc(/C=C/C(c2cc(Br)cc(Br)c2)C(F)(F)F)cc1C(F)(F)F (stereo not drawn) [Compound P1198]	50 to 100%	50 to 100%
O=C(NC1(C(=O)NCCF)CC1)c1ccc(/C=C/C(c2cc(Br)cc(Br)c2)C(F)(F)F)cc1C(F)(F)F (stereo not drawn) [Compound P1200]	50 to 100%	50 to 100%
O=C(NC1(C(=O)NCCC(F)(F)F)CC1)c1ccc(/C=C/C(c2cc(Br)cc(Br)c2)C(F)(F)F)cc1Br (stereo not drawn) [Compound P1213]	50 to 100%	50 to 100%
Cc1cc(/C=C/C(c2cc(Cl)c(Cl)c(Cl)c2)C(F)(F)F)ccc1C(=O)NC1(C(=O)NCC(F)(F)F)CCC1 (stereo not drawn) [FA1]	50 to 100%	50 to 100%
Cc1cc(C(/C=C/c2ccc(C(=O)NC3(C(=O)NCC(F)(F)F)CC3)c(C(F)(F)F)c2)C(F)(F)F)cc(Cl)c1Cl (stereo not drawn) [FA3]	50 to 100%	50 to 100%
Cc1cc(C(/C=C/c2ccc(C(=O)NC3(C(=O)NCC(F)(F)F)CC3)c(Br)c2)C(F)(F)F)cc(Cl)c1Cl (stereo not drawn) [FA4]	50 to 100%	50 to 100%

Structure (SMILES)	mortality at 50 µg/cm2 [1]	mortality at 50 µg/cm2 [2]
O=C(NC1(C(=O)NCC(F)(F)F)CC1)c1ccc(/C=C/C(c2cc(Cl)c(Br)c(Cl)c2)C(F)(F)F)cc1Br (stereo not drawn) [FA5]	50 to 100%	50 to 100%
O=C(NC1(C(=O)NCC(F)(F)F)CC1)c1ccc(/C=C/C(c2cc(Br)c(Cl)c(Br)c2)C(F)(F)F)cc1Br (stereo not drawn) [FA6]	50 to 100%	50 to 100%
O=C(NC1(C(=O)NCC(F)(F)F)CC1)c1ccc(/C=C/C(c2cc(Br)c(Cl)c(Br)c2)C(F)(F)F)cc1C(F)(F)F (stereo not drawn) [FA7]	50 to 100%	50 to 100%
O=C(NC1(C(=O)NCC(F)(F)F)CC1)c1ccc(/C=C/C(c2cc(Cl)c(Br)c(Cl)c2)C(F)(F)F)cc1C(F)(F)F (stereo not drawn) [FA8]	50 to 100%	50 to 100%
CC(F)(F)C(/C=C/c1ccc(C(=O)NC2(C(=O)NCC(F)(F)F)CC2)c(C(F)(F)F)c1)c1ccc(Cl)c(Cl)c1 (stereo not drawn) [FA9]	50 to 100%	50 to 100%
CCc1cc(Cl)cc(C(/C=C/c2ccc(C(=O)NC3(C(=O)NCC(F)(F)F)CC3)c(C(F)(F)F)c2)C(F)(F)F)c1 (stereo not drawn) [FA10]	50 to 100%	50 to 100%
CC(F)(F)C(/C=C/c1ccc(C(=O)NC2(C(=O)NCC(F)(F)F)CC2)c(Br)c1)c1ccc(Cl)c(Cl)c1 (stereo not drawn) [FA12]	50 to 100%	50 to 100%
CCc1cc(Cl)cc(C(/C=C/c2ccc(C(=O)NC3(C(=O)NCC(F)(F)F)CC3)c(Br)c2)C(F)(F)F)c1 (stereo not drawn) [FA13]	50 to 100%	50 to 100%
Cc1cc(C(/C=C/c2ccc(C(=O)NC3(C(=O)NCC(F)(F)F)CC3)c(C(F)(F)F)c2)C(F)(F)F)cc(C)c1Cl (stereo not drawn) [FA14]	50 to 100%	50 to 100%
O=C(NC1(C(=O)NCc2ccc(Cl)cc2)CC1)c1ccc(/C=C/C(c2cc(Cl)c(Cl)c(Cl)c2)C(F)(F)F)cc1Br (stereo not drawn) [FA16]	50 to 100%	50 to 100%
O=C(NC1(C(=O)NC2CCCC2)CC1)c1ccc(/C=C/C(c2cc(Cl)c(Cl)c(Cl)c2)C(F)(F)F)cc1Br (stereo not drawn) [FA17]	50 to 100%	50 to 100%
COCCCNC(=O)C1(NC(=O)c2ccc(/C=C/C(c3cc(Cl)c(Cl)c(Cl)c3)C(F)(F)F)cc2Br)CC1 (stereo not drawn) [FA18]	50 to 100%	50 to 100%
O=C(NC1(C(=O)NC2CCSC2)CC1)c1ccc(/C=C/C(c2cc(Cl)c(Cl)c(Cl)c2)C(F)(F)F)cc1Br (stereo not drawn) [FA19]	50 to 100%	50 to 100%
O=C(NC1(C(=O)NC2COC2)CC1)c1ccc(/C=C/C(c2cc(Cl)c(Cl)c(Cl)c2)C(F)(F)F)cc1Br (stereo not drawn) [FA20]	50 to 100%	50 to 100%
O=C(NC1(C(=O)NCC2CCOC2)CC1)c1ccc(/C=C/C(c2cc(Cl)c(Cl)c(Cl)c2)C(F)(F)F)cc1Br (stereo not drawn) [FA21]	50 to 100%	50 to 100%
O=C(NC1(C(=O)NC2CCCCC2)CC1)c1ccc(/C=C/C(c2cc(Cl)c(Cl)c(Cl)c2)C(F)(F)F)cc1Br (stereo not drawn) [FA22]	0%	50 to 100%
O=C(NC1(C(=O)NCCn2cccn2)CC1)c1ccc(/C=C/C(c2cc(Cl)c(Cl)c(Cl)c2)C(F)(F)F)cc1Br (stereo not drawn) [FA23]	50 to 100%	50 to 100%
O=C(NC1(C(=O)NCCn2ccnc2)CC1)c1ccc(/C=C/C(c2cc(Cl)c(Cl)c(Cl)c2)C(F)(F)F)cc1Br (stereo not drawn) [FA24]	0 to 50%	0%
O=C(NC1(C(=O)NC2CCOC2)CC1)c1ccc(/C=C/C(c2cc(Cl)c(Cl)c(Cl)c2)C(F)(F)F)cc1Br (stereo not drawn) [FA25]	50 to 100%	50 to 100%
O=C(NC1(C(=O)NCc2cccc(C(F)(F)F)c2)CC1)c1ccc(/C=C/C(c2cc(Cl)c(Cl)c(Cl)c2)C(F)(F)F)cc1Br (stereo not drawn) [FA26]	50 to 100%	50 to 100%
O=C(NC1(C(=O)NCc2cccc(Cl)c2)CC1)c1ccc(/C=C/C(c2cc(Cl)c(Cl)c(Cl)c2)C(F)(F)F)cc1Br (stereo not drawn) [FA27]	50 to 100%	50 to 100%
COCCNC(=O)C1(NC(=O)c2ccc(/C=C/C(c3cc(Cl)c(Cl)c(Cl)c3)C(F)(F)F)cc2Br)CC1 (stereo not drawn) [FA28]	50 to 100%	50 to 100%

Source: patent US9212164B2, “Pesticidal compositions and processes related thereto” (Dow AgroSciences LLC, priority 2012, dated 2015)
